Measured values: publication PMC10681907, “2-Hydroxyglutarate modulates histone methylation at specific loci and alters gene expression via Rph1 inhibition” (Life Science Alliance, 2023)

What was measured:
Experiment in all cases: FDH-coupled fluorescent demethylase assay, initial velocities, Hill fit
Assay type in all cases: biochemical
Gis1 = target: T1, Gis1 (Saccharomyces cerevisiae, UniProt Q03833)
T1 construct: full-length, N-terminal Strep(II) tag (pET51b+), expressed in E. coli BL21 Star (DE3), codon-optimized
T1 sequence (Q03833 1-894): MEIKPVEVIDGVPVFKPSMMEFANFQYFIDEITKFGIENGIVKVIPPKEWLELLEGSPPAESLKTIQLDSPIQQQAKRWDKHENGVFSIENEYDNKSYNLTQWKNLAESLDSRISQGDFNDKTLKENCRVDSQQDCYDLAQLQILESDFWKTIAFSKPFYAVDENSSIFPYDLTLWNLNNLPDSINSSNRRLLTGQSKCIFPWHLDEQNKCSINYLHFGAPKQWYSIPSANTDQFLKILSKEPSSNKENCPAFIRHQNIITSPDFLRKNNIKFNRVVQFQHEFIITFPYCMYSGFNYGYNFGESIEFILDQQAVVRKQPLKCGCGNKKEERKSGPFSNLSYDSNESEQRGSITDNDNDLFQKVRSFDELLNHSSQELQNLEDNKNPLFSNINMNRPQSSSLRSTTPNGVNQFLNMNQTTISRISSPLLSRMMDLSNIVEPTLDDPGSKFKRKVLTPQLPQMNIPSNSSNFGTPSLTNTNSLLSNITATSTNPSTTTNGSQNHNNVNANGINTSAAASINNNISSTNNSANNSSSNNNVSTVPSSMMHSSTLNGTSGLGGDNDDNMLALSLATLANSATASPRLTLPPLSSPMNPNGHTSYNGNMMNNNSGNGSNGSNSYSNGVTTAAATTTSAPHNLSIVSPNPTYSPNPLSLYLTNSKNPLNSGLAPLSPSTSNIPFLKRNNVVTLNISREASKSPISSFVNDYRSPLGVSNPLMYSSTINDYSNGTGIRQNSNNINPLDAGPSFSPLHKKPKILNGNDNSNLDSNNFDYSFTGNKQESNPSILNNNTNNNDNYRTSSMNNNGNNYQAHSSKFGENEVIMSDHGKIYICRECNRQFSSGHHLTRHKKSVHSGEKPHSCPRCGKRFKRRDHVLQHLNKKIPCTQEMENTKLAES

Rph1 = target: T2, Rph1 (Saccharomyces cerevisiae, UniProt P39956)
T2 construct: full-length, N-terminal Strep(II) tag (pET51b+), expressed in E. coli BL21 Star (DE3), codon-optimized
T2 sequence (P39956 whole entry): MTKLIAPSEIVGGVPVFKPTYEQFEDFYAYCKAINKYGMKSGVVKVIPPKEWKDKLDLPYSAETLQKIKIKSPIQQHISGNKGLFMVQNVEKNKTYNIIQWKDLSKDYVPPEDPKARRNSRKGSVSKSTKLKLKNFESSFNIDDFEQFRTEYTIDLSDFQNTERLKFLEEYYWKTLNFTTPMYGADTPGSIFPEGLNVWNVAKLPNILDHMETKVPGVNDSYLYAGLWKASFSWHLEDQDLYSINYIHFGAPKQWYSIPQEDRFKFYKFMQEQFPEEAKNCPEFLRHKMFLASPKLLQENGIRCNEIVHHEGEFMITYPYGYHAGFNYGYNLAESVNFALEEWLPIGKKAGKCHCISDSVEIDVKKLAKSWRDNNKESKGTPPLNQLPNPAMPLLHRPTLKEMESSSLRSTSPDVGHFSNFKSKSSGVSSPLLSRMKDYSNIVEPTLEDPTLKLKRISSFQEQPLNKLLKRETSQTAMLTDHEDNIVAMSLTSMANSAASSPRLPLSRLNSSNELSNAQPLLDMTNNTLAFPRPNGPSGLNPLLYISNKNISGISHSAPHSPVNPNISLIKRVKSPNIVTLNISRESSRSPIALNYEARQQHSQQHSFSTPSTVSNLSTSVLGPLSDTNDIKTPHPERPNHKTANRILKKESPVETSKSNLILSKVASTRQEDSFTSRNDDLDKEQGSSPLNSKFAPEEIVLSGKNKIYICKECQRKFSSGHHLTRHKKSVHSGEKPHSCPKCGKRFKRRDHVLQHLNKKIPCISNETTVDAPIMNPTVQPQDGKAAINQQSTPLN

Jhd2 = target: T3, Jhd2 (Saccharomyces cerevisiae, UniProt P47156)
T3 construct: full-length, N-terminal Strep(II) tag (pET51b+), expressed in E. coli BL21 Star (DE3), codon-optimized
T3 sequence (P47156 1-728): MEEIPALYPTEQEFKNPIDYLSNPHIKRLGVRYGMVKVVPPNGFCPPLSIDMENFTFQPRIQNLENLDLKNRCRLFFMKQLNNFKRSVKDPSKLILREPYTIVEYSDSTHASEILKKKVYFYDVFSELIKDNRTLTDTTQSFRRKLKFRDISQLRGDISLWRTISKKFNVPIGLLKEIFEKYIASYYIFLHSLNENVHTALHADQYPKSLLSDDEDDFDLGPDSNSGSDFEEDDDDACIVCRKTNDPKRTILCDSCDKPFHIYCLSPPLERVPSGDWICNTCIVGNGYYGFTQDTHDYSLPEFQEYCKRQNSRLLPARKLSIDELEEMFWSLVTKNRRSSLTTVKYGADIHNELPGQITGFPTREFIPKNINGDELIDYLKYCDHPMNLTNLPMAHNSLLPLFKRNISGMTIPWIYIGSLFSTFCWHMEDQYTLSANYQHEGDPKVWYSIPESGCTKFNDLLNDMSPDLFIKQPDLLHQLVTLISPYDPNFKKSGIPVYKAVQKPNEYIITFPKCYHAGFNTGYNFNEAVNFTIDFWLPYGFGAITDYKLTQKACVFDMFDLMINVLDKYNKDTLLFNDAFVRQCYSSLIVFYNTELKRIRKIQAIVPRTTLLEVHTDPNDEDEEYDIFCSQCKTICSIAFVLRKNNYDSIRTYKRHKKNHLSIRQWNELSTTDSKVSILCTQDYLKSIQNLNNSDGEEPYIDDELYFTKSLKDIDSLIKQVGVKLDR

Jhd1 = target: T4, Jhd1 (Saccharomyces cerevisiae, UniProt P40034)
T4 construct: full-length, N-terminal Strep(II) tag (pET51b+), expressed in E. coli BL21 Star (DE3), codon-optimized
T4 sequence (P40034 1-492): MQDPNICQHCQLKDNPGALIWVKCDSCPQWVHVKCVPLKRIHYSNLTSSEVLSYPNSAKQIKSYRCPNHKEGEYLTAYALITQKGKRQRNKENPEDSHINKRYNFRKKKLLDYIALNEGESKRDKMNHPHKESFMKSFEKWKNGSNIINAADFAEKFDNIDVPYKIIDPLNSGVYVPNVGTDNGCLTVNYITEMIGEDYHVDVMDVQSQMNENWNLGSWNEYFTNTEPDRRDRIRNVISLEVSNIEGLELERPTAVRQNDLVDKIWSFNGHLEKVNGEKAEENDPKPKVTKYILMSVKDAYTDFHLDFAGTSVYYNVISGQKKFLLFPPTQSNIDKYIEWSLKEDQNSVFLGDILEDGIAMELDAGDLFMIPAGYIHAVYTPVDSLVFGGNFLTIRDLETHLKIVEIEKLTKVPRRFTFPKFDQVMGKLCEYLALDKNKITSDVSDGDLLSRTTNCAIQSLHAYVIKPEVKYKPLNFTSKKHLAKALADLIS

Compound: O=C(O)CC[C@@H](O)C(=O)O [2-HG]
- IC50 (Gis1): ~3100 µM
- IC50 (Rph1): ~1300 µM
- IC50 (Jhd2): ~2200 µM
- IC50 (Jhd1): ~2000 µM
